Experiment: pH stability of prodrugs of DFMO in PBS buffer
Assay type: physicochemical
Conditions: for intact prodrug lost over the next 24 hours: 24 hours following the initial phase; for decrease in the amount of intact, non-degraded prodrug over the first hour of incubation: LC/MS/MS
Experimental: The stability of prodrugs of DFMO to different pH conditions over time was assayed. Prodrugs were reconstituted in dimethylsulfoxide (DMSO), diluted into phosphate buffered saline (PBS) of different pH values, incubated for different lengths of time at room temperature, and then analyzed by LC/MS/MS for changes in the levels of each prodrug. […] Following this initial phase, the (2)-prodrug was reasonably stable over the next 24 hours so that less than 20% of the intact prodrug was lost at pH 3 and 5, and about 60% of the intact material was lost at pH 8 over a day. […] Similar results were obtained with the other prodrugs tested.

Compound: CC(OC(=O)NCCCC(N)(C(=O)O)C(F)F)OC(=O)C(C)C (stereo not shown) [(2)-prodrug, 2-amino-2-(difluoromethyl)-5-[1-(2-methylpropanoyloxy)ethoxycarbonylamino]pentanoic acid]
- stability of intact, non-degraded prodrug over time at different pH (in words) (PBS of different pH values, room temperature): slowly lost
- intact prodrug lost over the next 24 hours (PBS pH 3, room temperature): less than 20%
- decrease in the amount of intact, non-degraded prodrug over the first hour of incubation (PBS pH 3, room temperature): about 60%
- intact prodrug lost over the next 24 hours (PBS pH 5, room temperature): less than 20%
- decrease in the amount of intact, non-degraded prodrug over the first hour of incubation (PBS pH 5, room temperature): 30-35%
- intact prodrug lost over the next 24 hours (PBS pH 8, room temperature): about 60%
- decrease in the amount of intact, non-degraded prodrug over the first hour of incubation (PBS pH 8, room temperature): 30-35%
